Source: patent US20100298141A1, “SUBSTITUTED PYRIDINE N-OXIDE HERBICIDES” (E. I. DU PONT DE NEMOURS AND COMPANY, priority 2007, published 2010)

Key:
large crabgrass = assay: Test F preemergence test; format: in vivo, Digitaria sanguinalis; conditions: scale 0 to 100
In short: (§1)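 Compound in a non-phytotoxic solvent blend with surfactant is applied preemergence to planted seeds or postemergence to sugarcane plants. Plants and controls stay in the greenhouse 14 to 21 days before visual comparison.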

Virginia dayflower = assay: Test F preemergence test; format: in vivo, Commelina virginica; conditions: scale 0 to 100
In short: as §1

Canada horseweed = assay: Test F preemergence test; format: in vivo, Conyza canadensis; conditions: scale 0 to 100
In short: as §1

common chickweed = assay: Test F preemergence test; format: in vivo, Stellaria media; conditions: scale 0 to 100
In short: as §1

Russian thistle = assay: Test F preemergence test; format: in vivo, Salsola kali; conditions: scale 0 to 100
Description: Seeds of plant species selected from bermudagrass (Cynodon dactylon), Surinam grass (Brachiaria decumbens), large crabgrass (Digitaria sanguinalis), green foxtail (Setaria viridis), goosegrass (Eleusine indica), johnsongrass (Sorghum halepense), kochia (Kochia scoparia), pitted morningglory (Ipomoea lacunosa), purple nutsedge (Cyperus rotundus), common ragweed (Ambrosia elation), mustard (Brassica nigra), guineagrass (Panicum maximum), […] (Paspalum dilatatum), barnyardgrass (Echinochloa crus-galli), southern sandbur (Cenchrus echinatus), common sowthistle (Sonchus oleraceous), prickly […] spinosa), Italian ryegrass (Lolium multiflorum), common purslane (Portulaca oleracea), broadleaf signalgrass (Brachiaria platyphylla), common groundsel (Senecio vulgaris), common chickweed (Stellaria media), Virginia dayflower (Commelina virginica), annual bluegrass (Poa annua), naked crabgrass (Digitaria nuda), […] cochinchinensis), quackgrass (Elytrigia repens), Canada horseweed (Conyza canadensis), field bindweed (Convolvulus arvensis), […] (Bidens bipinnata), common mallow (Malva sylvestris), Russian thistle (Salsola kali), and sugarcane (Saccharum officinarum) were planted and treated preemergence with test chemicals formulated in a non-phytotoxic solvent mixture which included a surfactant. At a different time, sugarcane was treated with postemergence applications of some of the test chemicals formulated in the same manner. Plants were approximately 3- to 4-leaf stage for the postemergence treatments. Treated plants and controls were maintained in a greenhouse for 14 to 21 days, after which time all species were compared to controls and visually evaluated. […] A dash (-) response means no test result.

barnyardgrass = assay: Test F preemergence test; format: in vivo, Echinochloa crus-galli; conditions: scale 0 to 100
In short: as §1

common sowthistle = assay: Test F preemergence test; format: in vivo, Sonchus oleraceous; conditions: scale 0 to 100
In short: as §1

winter barley = assay: Test C postemergence test; format: in vivo, Hordeum vulgare; conditions: for Plant response rating (0 to 100), Barley: 31 g ai/ha; for Plant response rating, Barley: scale 0 to 100, 0 no effect, 100 complete control
In short: (§2)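 Postemergence sprays of formulated test chemicals on plants 2 to 18 cm tall (1- to 4-leaf stage). Greenhouse hold for 13 to 15 days, then visual rating of each species against untreated controls; dash means no test result.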

canarygrass = assay: Test C postemergence test; format: in vivo, Phalaris minor; conditions: for Plant response rating (0 to 100), Canarygrass: 31 g ai/ha; for Plant response rating, Canarygrass: scale 0 to 100, 0 no effect, 100 complete control
In short: as §2

chickweed = assay: Test C postemergence test; format: in vivo, Stellaria media; conditions: for Plant response rating (0 to 100), Chickweed: 31 g ai/ha; for Plant response rating, Chickweed: scale 0 to 100, 0 no effect, 100 complete control
In short: as §2

windgrass = assay: Test C pre-/postemergence test; format: in vivo, Apera spica-venti; conditions: Postemergence; for Plant response rating, Windgrass: scale 0 to 100, 0 no effect, 100 complete control

Row | Compound | Plant response rating, Crabgrass, Large (large crabgrass; 8 g ai/ha, preemergence) | Crabgrass, Large plant response rating (large crabgrass; 62 g ai/ha, Preemergence) | Plant response rating, Crabgrass, Large (large crabgrass; Preemergence, 16 g ai/ha) | Plant response rating, Crabgrass, Large (large crabgrass; Preemergence, 31 g ai/ha) | Dayflower plant response rating (Virginia dayflower; 62 g ai/ha, Preemergence) | Plant response rating, Dayflower (Virginia dayflower; Preemergence, 16 g ai/ha) | Plant response rating, Dayflower (Virginia dayflower; Preemergence, 31 g ai/ha) | Plant response rating, Chickweed (common chickweed; 8 g ai/ha, preemergence) | Chickweed plant response rating (common chickweed; 62 g ai/ha, Preemergence) | Plant response rating, Chickweed (common chickweed; Preemergence, 16 g ai/ha) | Plant response rating, Chickweed (common chickweed; Preemergence, 31 g ai/ha) | Plant response rating, Russian Thistle (Russian thistle; Preemergence, 16 g ai/ha) | Plant response rating, Barnyardgrass (barnyardgrass; 8 g ai/ha, preemergence) | Barnyardgrass plant response rating (barnyardgrass; 62 g ai/ha, Preemergence) | Plant response rating, Barnyardgrass (barnyardgrass; Preemergence, 16 g ai/ha) | Plant response rating, Barnyardgrass (barnyardgrass; Preemergence, 31 g ai/ha) | Plant response rating, Sowthistle (common sowthistle; 8 g ai/ha, preemergence) | Plant response rating, Sowthistle (common sowthistle; 16 g ai/ha, preemergence) | Sowthistle plant response rating (common sowthistle; 62 g ai/ha, Preemergence) | Plant response rating, Sowthistle (common sowthistle; Preemergence, 31 g ai/ha) | other results
1 | Cc1cc[n+]([O-])c([S+]([O-])Cc2c(C(F)(F)F)nn(C)c2Cl)c1 (racemic) [Compound 20] | 0 | 80 | 10 | 70 | 60 | 0 | 0 | 0 | 95 | 80 | 90 | 0 | 0 | 90 | 40 | 80 | 0 | 65 | 50 | 0 | Plant response rating, Dayflower (Virginia dayflower; 8 g ai/ha, preemergence): 0; Plant response rating, Horseweed (Canada horseweed; 8 g ai/ha, preemergence): 0; Horseweed plant response rating (Canada horseweed; 62 g ai/ha, Preemergence): 0; Plant response rating, Horseweed (Canada horseweed; Preemergence, 16 g ai/ha): 0; Plant response rating, Horseweed (Canada horseweed; Preemergence, 31 g ai/ha): 0
2 | Cc1cc[n+]([O-])c([S+]([O-])Cc2c(C(F)(F)F)nn(C)c2OCC(F)(F)F)c1 (racemic) [Compound 30] |  | 100 | 40 | 50 | 90 | 50 | 70 |  | 100 | 75 | 100 | 100 |  | 95 | 20 | 75 |  |  | 100 | 100 | Crabgrass, Large plant response rating (large crabgrass; 125 g ai/ha, preemergence): 100; Dayflower plant response rating (Virginia dayflower; 125 g ai/ha, preemergence): 100; Horseweed plant response rating (Canada horseweed; 62 g ai/ha, Preemergence): 100; Horseweed plant response rating (Canada horseweed; 125 g ai/ha, preemergence): 100; Plant response rating, Horseweed (Canada horseweed; Preemergence, 16 g ai/ha): 100; Plant response rating, Horseweed (Canada horseweed; Preemergence, 31 g ai/ha): 100; Chickweed plant response rating (common chickweed; 125 g ai/ha, preemergence): 100; Russian Thistle plant response rating (Russian thistle; 62 g ai/ha, Preemergence): 100; Russian Thistle plant response rating (Russian thistle; 125 g ai/ha, preemergence): 100; Plant response rating, Russian Thistle (Russian thistle; Preemergence, 31 g ai/ha): 100; Barnyardgrass plant response rating (barnyardgrass; 125 g ai/ha, preemergence): 100; Sowthistle plant response rating (common sowthistle; 125 g ai/ha, preemergence): 100
3 | CC(c1c(C(F)(F)F)nn(C)c1OC(F)F)S(=O)(=O)c1cccc[n+]1[O-] (stereo not shown) [Compound 5] | 10 | 95 | 80 | 85 | 100 | 65 | 90 | 100 | 100 | 100 | 100 | 0 | 70 | 100 | 75 | 98 | 100 | 100 | 100 | 100 | Plant response rating (0 to 100), Barley (winter barley): 0; Plant response rating, Barley (winter barley; 62 g ai/ha): 0; Plant response rating, Barley (winter barley; 125 g ai/ha): 20; Plant response rating, Barley (winter barley; 250 g ai/ha): 20; Plant response rating (0 to 100), Canarygrass (canarygrass): 0; Plant response rating, Canarygrass (canarygrass; 62 g ai/ha): 0; Plant response rating, Canarygrass (canarygrass; 125 g ai/ha): 0; Plant response rating, Canarygrass (canarygrass; 250 g ai/ha): 0; Plant response rating, Russian Thistle (Russian thistle; 8 g ai/ha, preemergence): 0; Russian Thistle plant response rating (Russian thistle; 62 g ai/ha, Preemergence): 60; Plant response rating, Russian Thistle (Russian thistle; Preemergence, 31 g ai/ha): 0; Plant response rating (0 to 100), Chickweed (chickweed): 0; Plant response rating, Chickweed (chickweed; 62 g ai/ha): 0; Plant response rating, Chickweed (chickweed; 125 g ai/ha): 10; Plant response rating, Chickweed (chickweed; 250 g ai/ha): 85; Plant response rating (0 to 100), Windgrass (windgrass; 31 g ai/ha): 30; Plant response rating (0 to 100), Windgrass (windgrass; 62 g ai/ha): 60; Plant response rating, Windgrass (windgrass; 125 g ai/ha): 70; Plant response rating, Windgrass (windgrass; 250 g ai/ha): 75
4 | Cn1nc(C(F)(F)F)c(C[S+]([O-])c2ccc(Cl)c[n+]2[O-])c1OC(F)F (stereo not shown) [Compound 6] | 0 | 95 | 15 | 70 | 100 | 90 | 90 | 80 | 100 | 100 | 100 | 0 | 0 | 90 | 70 | 80 | 0 | 0 | 90 | 50 | Plant response rating (0 to 100), Barley (winter barley): 0; Plant response rating, Barley (winter barley; 62 g ai/ha): 0; Plant response rating, Barley (winter barley; 125 g ai/ha): 0; Plant response rating, Barley (winter barley; 250 g ai/ha): 0; Plant response rating (0 to 100), Canarygrass (canarygrass): 0; Plant response rating, Canarygrass (canarygrass; 62 g ai/ha): 0; Plant response rating, Canarygrass (canarygrass; 125 g ai/ha): 0; Plant response rating, Canarygrass (canarygrass; 250 g ai/ha): 10; Plant response rating, Dayflower (Virginia dayflower; 8 g ai/ha, preemergence): 0; Plant response rating, Russian Thistle (Russian thistle; 8 g ai/ha, preemergence): 0; Plant response rating, Russian Thistle (Russian thistle; Preemergence, 31 g ai/ha): 0; Plant response rating (0 to 100), Chickweed (chickweed): 0; Plant response rating, Chickweed (chickweed; 62 g ai/ha): 40; Plant response rating, Chickweed (chickweed; 125 g ai/ha): 85; Plant response rating, Chickweed (chickweed; 250 g ai/ha): 95; Plant response rating (0 to 100), Windgrass (windgrass; 31 g ai/ha): 50; Plant response rating (0 to 100), Windgrass (windgrass; 62 g ai/ha): 98; Plant response rating, Windgrass (windgrass; 125 g ai/ha): 100; Plant response rating, Windgrass (windgrass; 250 g ai/ha): 100
